# According to ChEMBL document CHEMBL1800027, “Imidazolopiperazines: hit to lead optimization of new antimalarial agents” (J Med Chem, 2011):
# Tests used:
# Plasmodium falciparum [1] = assay: Antimalarial activity against Plasmodium falciparum W2 infected in human erythrocytes assessed as decrease in parasitemia after 72 hrs; type: functional, organism-based; conditions: W2, 72 h
# Plasmodium falciparum [2] = assay: Antimalarial activity against Plasmodium falciparum 3D7 infected in human erythrocytes assessed as decrease in parasitemia after 72 hrs; type: functional, organism-based; conditions: 3D7, 72 h
# [3] = Tmax in female CD1 mouse at 30 mg/kg, po by LC/MS/MS analysis; conditions: in vivo
# [4] = pampa
# Description: Permeability of the compound assessed as amount of compound absorbed by PAMPA method
# Plasmodium berghei [5] = assay: Antimalarial activity against GFP-tagged Plasmodium berghei ANKA infected in NMRI mouse assessed as mouse survival at 100 mg/kg, po administered as single dose 24 hrs post infection measured on day 30 post infection
# in vitro [6] = conditions: human, Caco-2
# Description: Apparent permeability from apical to basolateral side in human Caco2 cells by LC/MS analysis
# in vivo [7] = conditions: female, CD1, mouse, po, 30 mg/kg
# Description: Half life in female CD1 mouse at 20 mg/kg, po by LC/MS/MS analysis
# Plasmodium berghei [8] = assay: Antimalarial activity against GFP-tagged Plasmodium berghei ANKA infected in NMRI mouse assessed as reduction in parasitemia at 30 mg/kg, po QD administered 24 hrs post infection for 3 days measured on day 4 post infection; type: functional; design: scale not given: the % may be the effect or the level left
# in vivo [9] = conditions: female, CD1, mouse, iv, 5 mg/kg
# Description: Half-life in female CD1 mouse at 5 mg/kg, iv by LC/MS/MS analysis
# [10] = Oral bioavailability in female CD1 mouse at 30 mg/kg by LC/MS/MS analysis; conditions: female, CD1, mouse, in vivo
# in vivo [11] = conditions: female, CD1, mouse, iv, 5 mg/kg; remark: listed apart in the source
# Description: Volume of distribution in female CD1 mouse at 5 mg/kg, iv by LC/MS/MS analysis
# in vitro [12] = conditions: mouse
# Description: Metabolic stability in mouse hepatic microsomes assessed as extraction ratio by LC/MS/MS analysis
# [13] = Cmax in female CD1 mouse at 30 mg/kg, po by LC/MS/MS analysis; conditions: in vivo
# in vitro [14] = conditions: human
# Description: Metabolic stability in human hepatic microsomes assessed as extraction ratio by LC/MS/MS analysis
# in vivo [15] = conditions: female, CD1, mouse, plasma, po, 30 mg/kg
# in vitro [16] = conditions: human, Caco-2; remark: listed apart in the source
# Description: Apparent permeability from basolateral to apical side in human Caco2 cells by LC/MS analysis
# in vivo [17] = conditions: female, CD1, mouse, iv, 5 mg/kg; remark: listed apart in the source
# Description: Clearance in female CD1 mouse at 5 mg/kg, iv by LC/MS/MS analysis
# [18] = target: Voltage-gated inwardly rectifying potassium channel KCNH2 (Homo sapiens, UniProt Q12809)
# Chain of Voltage-gated inwardly rectifying potassium channel KCNH2 (Q12809 whole entry): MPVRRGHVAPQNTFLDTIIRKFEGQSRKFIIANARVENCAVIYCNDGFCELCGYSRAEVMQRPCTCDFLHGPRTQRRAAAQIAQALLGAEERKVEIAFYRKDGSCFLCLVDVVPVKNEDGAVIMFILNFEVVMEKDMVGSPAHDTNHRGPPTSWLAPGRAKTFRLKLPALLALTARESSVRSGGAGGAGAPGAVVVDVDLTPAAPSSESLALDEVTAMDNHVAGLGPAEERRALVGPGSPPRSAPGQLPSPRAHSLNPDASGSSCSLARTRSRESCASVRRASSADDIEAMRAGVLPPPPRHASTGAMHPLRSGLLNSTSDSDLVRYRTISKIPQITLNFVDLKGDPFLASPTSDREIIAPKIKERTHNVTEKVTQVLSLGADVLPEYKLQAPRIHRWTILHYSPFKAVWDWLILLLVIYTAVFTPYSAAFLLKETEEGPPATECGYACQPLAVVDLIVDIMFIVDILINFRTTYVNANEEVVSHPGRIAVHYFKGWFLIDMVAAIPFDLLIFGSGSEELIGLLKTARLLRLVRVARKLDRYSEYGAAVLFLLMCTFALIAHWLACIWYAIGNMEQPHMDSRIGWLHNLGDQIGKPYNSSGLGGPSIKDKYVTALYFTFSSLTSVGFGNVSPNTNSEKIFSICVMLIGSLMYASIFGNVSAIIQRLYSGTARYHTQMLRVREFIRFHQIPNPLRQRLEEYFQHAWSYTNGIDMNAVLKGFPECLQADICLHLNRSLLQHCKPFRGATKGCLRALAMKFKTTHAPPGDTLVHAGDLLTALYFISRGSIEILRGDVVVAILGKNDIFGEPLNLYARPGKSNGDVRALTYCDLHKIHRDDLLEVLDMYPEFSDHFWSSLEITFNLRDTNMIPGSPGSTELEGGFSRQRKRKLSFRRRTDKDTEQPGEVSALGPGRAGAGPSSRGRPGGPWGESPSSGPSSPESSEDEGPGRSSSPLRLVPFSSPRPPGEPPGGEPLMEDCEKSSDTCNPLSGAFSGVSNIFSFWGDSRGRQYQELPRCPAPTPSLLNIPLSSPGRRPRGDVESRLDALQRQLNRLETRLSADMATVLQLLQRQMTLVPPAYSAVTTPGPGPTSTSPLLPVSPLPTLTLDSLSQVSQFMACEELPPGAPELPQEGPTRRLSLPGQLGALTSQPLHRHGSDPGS
# Description: Inhibition of human ERG expressed in CHO cells by Q-patch assay
# in vivo [19] = conditions: female, CD1, mouse, plasma, iv, 5 mg/kg
# in vitro [20] = conditions: rat
# Description: Metabolic stability in rat hepatic microsomes assessed as extraction ratio by LC/MS/MS analysis
# Plasmodium berghei [21] = assay: Antimalarial activity against GFP-tagged Plasmodium berghei ANKA infected in NMRI mouse assessed as mouse survival at 30 mg/kg, po administered as single dose 24 hrs post infection measured 72 hrs post infection
# Plasmodium berghei [22] = assay: Antimalarial activity against GFP-tagged Plasmodium berghei ANKA infected in NMRI mouse assessed as reduction in parasitemia at 30 mg/kg, po administered as single dose 24 hrs post infection measured 72 hrs post infection; type: functional; design: scale not given: the % may be the effect or the level left
# Plasmodium berghei [23] = assay: Antimalarial activity against GFP-tagged Plasmodium berghei ANKA infected in NMRI mouse assessed as mouse survival at 30 mg/kg, po QD administered 24 hrs post infection for 3 days measured on day 30 post infection; type: functional
# [24] = Selectivity index, ratio TC50 for human HuH7 cells to IC50 for Plasmodium falciparum; type: functional, Huh-7
# [25] = Selectivity index, ratio TC50 for human HeLa cells to IC50 for Plasmodium falciparum; type: functional
# [26] = Cytotoxicity against human HuH7 cells; type: cell-based; conditions: Huh-7 cells, read-out: TC50 (the source's name)
smiles,measurement,setting,value
Fc1ccc(Nc2c(-c3ccc(F)cc3)nc3n2CCNC3)cc1,IC50,Plasmodium falciparum [1],175 nM
same,IC50,Plasmodium falciparum [2],200 nM
CC(C)(N)C(=O)N1CCn2c(nc(-c3ccc(F)cc3)c2Nc2ccc(Cl)c(F)c2)C1,Tmax,[3],2 h
same,permeability,[4],94%
same,Survival,Plasmodium berghei [5],11 days
same,IC50,Plasmodium falciparum [1],52 nM
same,Papp A→B,in vitro [6],0.84 ×10⁻⁶ cm/s
same,half-life,in vivo [7],9.1 h
same,Activity,Plasmodium berghei [8],99.8%
same,half-life,in vivo [9],7.8 h
same,IC50,Plasmodium falciparum [2],40 nM
same,bioavailability,[10],24%
same,Vd,in vivo [11],1.7 L/kg
same,hepatic extraction ratio,in vitro [12]; microsomes,0.76
same,Cmax,[13],3320 nM
same,hepatic extraction ratio,in vitro [14]; microsomes,0.48
same,AUC(0-inf),in vivo [15],36.7 µM·h
same,Papp B→A,in vitro [16],0.87 ×10⁻⁶ cm/s
same,clearance,in vivo [17],5.8 mL/min/kg
same,IC50,[18],5600 nM
same,AUC(0-inf),in vivo [19],25.5 µM·h
same,hepatic extraction ratio,in vitro [20]; microsomes,0.67
same,Survival,Plasmodium berghei [21],7 days
Cc1ccc(-c2nc3n(c2Nc2ccc(F)cc2)CCN(C(=O)CN)C3)cc1,IC50,Plasmodium falciparum [1],3360 nM
same,IC50,Plasmodium falciparum [2],3140 nM
NCC(=O)N1CCn2c(nc(-c3ccc(F)cc3)c2Nc2ccc(F)c(F)c2)C1,IC50,Plasmodium falciparum [1],23 nM
same,Papp A→B,in vitro [6],0.99 ×10⁻⁶ cm/s
same,IC50,Plasmodium falciparum [2],30 nM
same,hepatic extraction ratio,in vitro [12]; liver microsomes,0.21
same,hepatic extraction ratio,in vitro [14]; liver microsomes,0.21
same,Papp B→A,in vitro [16],2.99 ×10⁻⁶ cm/s
same,hepatic extraction ratio,in vitro [20]; liver microsomes,0.38
NCC(=O)N1CCn2c(nc(-c3ccc(F)cc3)c2Nc2ccc(Cl)cc2)C1,permeability,[4],52%
same,IC50,Plasmodium falciparum [1],9 nM
same,Papp A→B,in vitro [6],0.44 ×10⁻⁶ cm/s
same,IC50,Plasmodium falciparum [2],10 nM
same,hepatic extraction ratio,in vitro [12]; liver microsomes,0.17
same,hepatic extraction ratio,in vitro [14]; liver microsomes,0.55
same,Papp B→A,in vitro [16],1.25 ×10⁻⁶ cm/s
same,hepatic extraction ratio,in vitro [20]; liver microsomes,0.63
NCC(=O)N1CCn2c(nc(-c3ccc(F)cc3)c2Nc2ccc(F)cc2)C1,Tmax,[3],2 h
same,permeability,[4],52%
same,IC50,Plasmodium falciparum [1],23 nM
same,Papp A→B,in vitro [6],0.7 ×10⁻⁶ cm/s
same,half-life,in vivo [7],4.2 h
same,half-life,in vivo [9],2.7 h
same,IC50,Plasmodium falciparum [2],20 nM
same,bioavailability,[10],15%
same,Vd,in vivo [11],12.3 L/kg
same,Cmax,[13],234 nM
same,AUC(0-inf),in vivo [15],0.965 µM·h
same,clearance,in vivo [17],189 mL/min/kg
same,AUC(0-inf),in vivo [19],1.07 µM·h
NCCC(=O)N1CCn2c(nc(-c3ccc(F)cc3)c2Nc2ccc(F)cc2)C1,IC50,Plasmodium falciparum [1],75 nM
same,IC50,Plasmodium falciparum [2],70 nM
NCC(=O)N1CCn2c(nc(-c3cccc(F)c3)c2Nc2ccc(F)cc2)C1,Tmax,[3],2 h
same,Activity,Plasmodium berghei [22],86%
same,Survival,Plasmodium berghei [5],10 days
same,IC50,Plasmodium falciparum [1],30 nM
same,Papp A→B,in vitro [6],0.56 ×10⁻⁶ cm/s
same,half-life,in vivo [7],1 h
same,Activity,Plasmodium berghei [8],99.7%
same,half-life,in vivo [9],1.8 h
same,IC50,Plasmodium falciparum [2],10 nM
same,bioavailability,[10],18%
same,Vd,in vivo [11],21.6 L/kg
same,hepatic extraction ratio,in vitro [12]; liver microsomes,0.31
same,Cmax,[13],417 nM
same,AUC(0-inf),in vivo [15],1.33 µM·h
same,Papp B→A,in vitro [16],2.32 ×10⁻⁶ cm/s
same,clearance,in vivo [17],192 mL/min/kg
same,IC50,[18],> 30000 nM
same,AUC(0-inf),in vivo [19],1.23 µM·h
same,Survival,Plasmodium berghei [21],6 days
Cc1ccc(Nc2c(-c3ccc(F)c(F)c3)nc3n2CCN(C(=O)C(C)(C)N)C3)cc1,IC50,Plasmodium falciparum [1],50 nM
same,IC50,Plasmodium falciparum [2],60 nM
CC(C)(N)C(=O)N1CCn2c(nc(-c3ccc(F)cc3)c2NC2CCCCC2)C1,IC50,Plasmodium falciparum [1],5980 nM
same,IC50,Plasmodium falciparum [2],9610 nM
CCc1nc(N)nc(N)c1-c1ccc(Cl)cc1 [PYRIMETHAMINE],IC50,Plasmodium falciparum [1],> 10000 nM
C[C@H]1[C@H](OC(=O)CCC(=O)O)O[C@@H]2O[C@@]3(C)CC[C@H]4[C@H](C)CC[C@@H]1[C@@]24OO3 [ARTESUNATE],Activity,Plasmodium berghei [22],89%
same,Survival,Plasmodium berghei [5],6.7 days
same,Activity,Plasmodium berghei [8],97%
same,Survival,Plasmodium berghei [21],7.2 days
CC(C)(N)C(=O)N1CCn2c(nc(-c3ccccc3)c2Nc2ccc(F)cc2)C1,IC50,Plasmodium falciparum [1],168 nM
same,IC50,Plasmodium falciparum [2],200 nM
CC(C)(N)C(=O)N1CCn2c(nc(-c3ccc(F)cc3)c2Nc2cccnc2)C1,IC50,Plasmodium falciparum [1],3320 nM
same,IC50,Plasmodium falciparum [2],1410 nM
CCN(CC)CCCC(C)Nc1ccnc2cc(Cl)ccc12 (centres undefined) [CHLOROQUINE],Survival,Plasmodium berghei [5],12 days
same,Activity,Plasmodium berghei [8],>99.9%
same,Survival,Plasmodium berghei [23],18.8 days
same,Survival,Plasmodium berghei [21],8.7 days
N[C@@H](Cc1ccccc1)C(=O)N1CCn2c(nc(-c3ccc(F)cc3)c2Nc2ccc(F)cc2)C1,IC50,Plasmodium falciparum [1],121 nM
same,IC50,Plasmodium falciparum [2],110 nM
N[C@H](Cc1ccccc1)C(=O)N1CCn2c(nc(-c3ccc(F)cc3)c2Nc2ccc(F)cc2)C1,IC50,Plasmodium falciparum [1],59 nM
same,IC50,Plasmodium falciparum [2],70 nM
CC(C)(N)C(=O)N1CCn2c(nc(-c3ccc(F)cc3)c2Nc2cc(F)cc(F)c2)C1,IC50,Plasmodium falciparum [1],244 nM
same,IC50,Plasmodium falciparum [2],220 nM
COc1ccc(-c2nc3n(c2Nc2ccc(F)cc2)CCN(C(=O)CN)C3)cc1,IC50,Plasmodium falciparum [1],1700 nM
same,IC50,Plasmodium falciparum [2],2270 nM
C[C@H](N)C(=O)N1CCn2c(nc(-c3ccc(F)cc3)c2Nc2ccc(F)cc2)C1,IC50,Plasmodium falciparum [1],64 nM
same,IC50,Plasmodium falciparum [2],90 nM
CC(C)CC(N)C(=O)N1CCn2c(nc(-c3ccccc3)c2Nc2ccc3c(c2)OCO3)C1 (racemic),IC50,Plasmodium falciparum [1],119 nM
same,IC50,Plasmodium falciparum [2],116 nM
same,Selectivity Index,[24],>20
same,Selectivity Index,[25],>20
same,CC50,[26],> 10000 nM
NCC(=O)N1CCn2c(nc(-c3ccc(F)cc3)c2Nc2cccc(F)c2)C1,IC50,Plasmodium falciparum [1],34 nM
same,IC50,Plasmodium falciparum [2],50 nM
Fc1ccc(Nc2c(-c3ccc(F)cc3)nc3cnccn23)cc1,IC50,Plasmodium falciparum [1],5520 nM
same,IC50,Plasmodium falciparum [2],> 10 nM
CC(C)(N)C(=O)N1CCn2c(nc(-c3ccccc3F)c2Nc2ccc(F)cc2)C1,IC50,Plasmodium falciparum [1],1280 nM
same,IC50,Plasmodium falciparum [2],1390 nM
CC(C)[C@H](N)C(=O)N1CCn2c(nc(-c3ccc(F)cc3)c2Nc2ccc(F)cc2)C1,IC50,Plasmodium falciparum [1],24 nM
same,IC50,Plasmodium falciparum [2],30 nM
CC(C)(N)C(=O)N1CCn2c(nc(-c3ccc(F)cc3)c2Nc2ccc(F)cc2F)C1,IC50,Plasmodium falciparum [1],90 nM
same,IC50,Plasmodium falciparum [2],110 nM
NC(Cc1ccccc1)C(=O)N1CCn2c(nc(-c3ccccc3)c2Nc2ccc3c(c2)OCO3)C1 (racemic),IC50,Plasmodium falciparum [1],271 nM
same,IC50,Plasmodium falciparum [2],235 nM
same,Selectivity Index,[24],>20
same,Selectivity Index,[25],>20
same,CC50,[26],> 10000 nM
C[C@@H]1CC[C@H]2[C@@H](C)C(=O)O[C@@H]3O[C@@]4(C)CC[C@@H]1[C@]32OO4 [ARTEMISININ],IC50,Plasmodium falciparum [2],12 nM
NCC(=O)N1CCn2c(nc(-c3ccc(Cl)cc3)c2Nc2ccc(F)cc2)C1,IC50,Plasmodium falciparum [1],437 nM
same,IC50,Plasmodium falciparum [2],660 nM
